Measured values taken from ChEMBL document CHEMBL3217615, “Novel 3,5-bis(arylidiene)-4-piperidone based monocarbonyl analogs of curcumin: anticancer activity evaluation and mode of action study” (2014).

Experiments:
Type in all cases: functional
[1] = Growth inhibition of human SF539 cells after 48 hrs by sulforhodamine B assay; conditions: SF-539, 48 h; for CC50: read-out: LC50 (the source's name)
[2] = Growth inhibition of human LOXIMVI cells assessed as cell growth at 10^-4 M after 48 hrs by sulforhodamine B assay; conditions: LOX IMVI, read-out: Activity
[3] = Growth inhibition of human UACC257 cells assessed as cell growth at 10^-5 M after 48 hrs by sulforhodamine B assay; conditions: UACC-257, 48 h, read-out: Activity
[4] = Growth inhibition of human NCI-ADR-RES cells assessed as cell growth at 10^-4 M after 48 hrs by sulforhodamine B assay; conditions: read-out: Activity
[5] = system: KM12; assay: Growth inhibition of human KM12 cells assessed as cell growth at 10^-6 M after 48 hrs by sulforhodamine B assay; conditions: KM12, 48 h, read-out: Activity
[6] = system: HT-29; assay: Growth inhibition of human HT-29 cells assessed as cell growth at 10^-4 M after 48 hrs by sulforhodamine B assay; conditions: HT-29, 48 h, read-out: Activity
[7] = system: SR; assay: Growth inhibition of human SR cells assessed as cell growth at 10^-4 M after 48 hrs by sulforhodamine B assay; conditions: read-out: Activity
[8] = system: COLO 205; assay: Induction of apoptosis in human COLO205 cells assessed as caspase 8 activation at 10 uM by FLICA
[9] = Growth inhibition of human OVCAR5 cells assessed as cell growth at 10^-7 M after 48 hrs by sulforhodamine B assay; conditions: OVCAR-5, 48 h, read-out: Activity
[10] = system: HCT-116; assay: Growth inhibition of human HCT116 cells assessed as cell growth at 10^-4 M after 48 hrs by sulforhodamine B assay; conditions: HCT-116, 48 h, read-out: Activity
[11] = system: MCF7; assay: Growth inhibition of human MCF7 cells assessed as cell growth at 10^-7 M after 48 hrs by sulforhodamine B assay; conditions: MCF7, 48 h, read-out: Activity
[12] = system: MDA-MB-435; assay: Growth inhibition of human MDA-MB-435 cells after 48 hrs by sulforhodamine B assay; conditions: MDA-MB-435, 48 h; for CC50: read-out: LC50 (the source's name)
[13] = system: SNB-19; assay: Growth inhibition of human SNB19 cells assessed as cell growth at 10^-4 M after 48 hrs by sulforhodamine B assay; conditions: SNB-19, 48 h, read-out: Activity
[14] = system: DU-145; assay: Growth inhibition of human DU145 cells assessed as cell growth at 10^-4 M after 48 hrs by sulforhodamine B assay; conditions: DU-145, 48 h, read-out: Activity
[15] = system: M14; assay: Growth inhibition of human M14 cells assessed as cell growth at 10^-4 M after 48 hrs by sulforhodamine B assay; conditions: M14, 48 h, read-out: Activity
[16] = Growth inhibition of human Hs 578T cells assessed as cell growth at 10^-4 M after 48 hrs by sulforhodamine B assay; conditions: read-out: Activity
[17] = system: CCRF-CEM; assay: Growth inhibition of human CCRF-CEM cells assessed as cell growth at 10^-6 M after 48 hrs by sulforhodamine B assay; conditions: read-out: Activity
[18] = Growth inhibition of human Hs 578T cells assessed as cell growth at 10^-8 M after 48 hrs by sulforhodamine B assay
[19] = system: TK-10; assay: Growth inhibition of human TK10 cells assessed as cell growth at 10^-6 M after 48 hrs by sulforhodamine B assay; conditions: TK-10, 48 h, read-out: Activity
[20] = system: TK-10; assay: Growth inhibition of human TK10 cells assessed as cell growth at 10^-8 M after 48 hrs by sulforhodamine B assay; conditions: TK-10, 48 h
[21] = Growth inhibition of human Hs 578T cells assessed as cell growth at 10^-7 M after 48 hrs by sulforhodamine B assay; conditions: read-out: Activity
[22] = system: PC-3; assay: Growth inhibition of human PC3 cells assessed as cell growth at 10^-6 M after 48 hrs by sulforhodamine B assay; conditions: PC-3, 48 h, read-out: Activity
[23] = system: TK-10; assay: Growth inhibition of human TK10 cells after 48 hrs by sulforhodamine B assay; conditions: TK-10, 48 h
[24] = Growth inhibition of human Hs 578T cells after 48 hrs by sulforhodamine B assay
[25] = system: TK-10; assay: Growth inhibition of human TK10 cells assessed as cell growth at 10^-7 M after 48 hrs by sulforhodamine B assay; conditions: TK-10, 48 h, read-out: Activity
[26] = Growth inhibition of human Hs 578T cells assessed as cell growth at 10^-6 M after 48 hrs by sulforhodamine B assay; conditions: read-out: Activity
[27] = system: HOP-62; assay: Growth inhibition of human HOP62 cells assessed as cell growth at 10^-4 M after 48 hrs by sulforhodamine B assay; conditions: HOP-62, 48 h, read-out: Activity
[28] = system: TK-10; assay: Growth inhibition of human TK10 cells assessed as cell growth at 10^-4 M after 48 hrs by sulforhodamine B assay; conditions: TK-10, 48 h, read-out: Activity
[29] = read-out: LC50 (the source's name)

`O=C1/C(=C/c2ccc(Cl)cc2Cl)CN(S(=O)(=O)c2ccccc2)C/C1=C\c1ccc(Cl)cc1Cl` gave a GI50 [1] of 424 nM, a TGI [1] of 2070 nM and a CC50 [1] greater than 100000 nM. It also gave a growth at 100 µM [2] of -48%, a growth at 10 µM [3] of 27% and a growth at 100 µM [4] of 21%. For the same compound, the growth at 1 µM [5] was -30%, the growth at 100 µM [6] was -16% and the growth at 100 µM [7] was -21%. The Activity [8] was 23%, the growth at 0.1 µM [9] was 94% and the growth at 100 µM [10] was -76%. It also gave a growth at 0.1 µM [11] of 84%, a GI50 [12] of 985 nM and a TGI [12] of 3210 nM. For the same compound, the CC50 [12] was greater than 100000 nM, the growth at 100 µM [13] was -23% and the growth at 100 µM [14] was -10%. The growth at 100 µM [15] was 31%.

In the case of `Cc1ccc(S(=O)(=O)N2C/C(=C\c3cc(F)cc(F)c3)C(=O)/C(=C/c3cc(F)cc(F)c3)C2)cc1`, the growth at 100 µM [16] is reported as -23%, the growth at 1 µM [17] is reported as -1% and the GI50 [18] is reported as 398 nM. For the same compound, the LC50 [18] was greater than 100000 nM, the growth at 0.01 µM ([18]; read-out: Activity) was 92% and the TGI ([18]; read-out: pTGI (converted)) was 18600 nM. It also gave a growth at 1 µM [19] of 52%, a GI50 [1] of 1210 nM and a TGI [1] of 2870 nM. The CC50 [1] was 6810 nM, the growth at 100 µM [2] was -98% and the GI50 [20] was 1020 nM. The LC50 (50% lethal concentration) [20] was 8510 nM, the growth at 0.01 µM ([20]; read-out: Activity) was 103% and the TGI ([20]; read-out: pTGI (converted)) was 2950 nM. It also gave a growth at 0.1 µM [21] of 93%, a growth at 10 µM [3] of -57% and a growth at 100 µM [4] of -57%. For the same compound, the growth at 100 µM [6] was -75%, the growth at 100 µM [7] was -30% and the Activity [8] was 61%. For the same compound, the growth at 0.1 µM [9] was 93%, the growth at 1 µM [22] was -9% and the GI50 [23] was 1030 nM. The TGI [23] was 2960 nM, the CC50 [23, 29] was 8460 nM and the growth at 100 µM [10] was -92%. The GI50 [24] was 399 nM, the TGI [24] was 18600 nM and the CC50 [24, 29] was greater than 100000 nM. The growth at 0.1 µM [11] was 62%, the growth at 0.1 µM [25] was 106% and the GI50 [12] was 241 nM. It also gave a TGI [12] of 685 nM, a CC50 [12] of 3630 nM and a growth at 100 µM [13] of -100%. For the same compound, the growth at 100 µM [14] was -87%, the growth at 1 µM [26] was 22% and the growth at 100 µM [15] was -86%. For the same compound, the growth at 100 µM [27] was -93% and the growth at 100 µM [28] was -85%.
